PubChem BioAssay (NCI)
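Test compounds were applied to cells in 96-well plates for 48 hours at 5 doses. The concentration for full growth arrest is given as TGI.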

Tests used:
Assay in all cases: NCI anticancer screen, dose series, 48 h
786-0 renal = test system: 786-0 renal
A498 renal = test system: A498 renal
A549 NSCLC = test system: A549 NSCLC
ACHN renal = test system: ACHN renal
CAKI-1 renal = test system: CAKI-1 renal
CCRF-CEM leukemia = test system: CCRF-CEM leukemia
COLO 205 colon = test system: COLO 205 colon
DU-145 prostate = test system: DU-145 prostate
EKVX NSCLC = test system: EKVX NSCLC
HCC-2998 colon = test system: HCC-2998 colon
HCT-116 colon = test system: HCT-116 colon
HCT-15 colon = test system: HCT-15 colon
HOP-62 NSCLC = test system: HOP-62 NSCLC
HOP-92 NSCLC = test system: HOP-92 NSCLC
HS 578T breast = test system: HS 578T breast
HT29 colon = test system: HT29 colon
IGROV1 ovarian = test system: IGROV1 ovarian
K-562 leukemia = test system: K-562 leukemia
KM12 colon = test system: KM12 colon
LOX IMVI melanoma = test system: LOX IMVI melanoma
M14 melanoma = test system: M14 melanoma
MCF7 breast = test system: MCF7 breast
MDA-MB-231 breast = test system: MDA-MB-231 breast
MDA-N = test system: MDA-N
MOLT-4 leukemia = test system: MOLT-4 leukemia
NCI-H226 lung = test system: NCI-H226 lung
NCI-H23 lung = test system: NCI-H23 lung
NCI-H460 lung = test system: NCI-H460 lung
NCI-H522 lung = test system: NCI-H522 lung
NCI/ADR-RES ovarian = test system: NCI/ADR-RES ovarian
OVCAR-3 ovarian = test system: OVCAR-3 ovarian
OVCAR-4 ovarian = test system: OVCAR-4 ovarian
OVCAR-5 ovarian = test system: OVCAR-5 ovarian
OVCAR-8 ovarian = test system: OVCAR-8 ovarian
PC-3 prostate = test system: PC-3 prostate
RPMI-8226 leukemia = test system: RPMI-8226 leukemia
RXF 393 renal = test system: RXF 393 renal
SF-268 CNS = test system: SF-268 CNS
SF-295 CNS = test system: SF-295 CNS
SF-539 CNS = test system: SF-539 CNS
SK-MEL-2 melanoma = test system: SK-MEL-2 melanoma
SK-MEL-28 melanoma = test system: SK-MEL-28 melanoma
SK-MEL-5 melanoma = test system: SK-MEL-5 melanoma
SK-OV-3 ovarian = test system: SK-OV-3 ovarian
SN12C renal = test system: SN12C renal
SNB-19 CNS = test system: SNB-19 CNS
SR leukemia = test system: SR leukemia
SW-620 colon = test system: SW-620 colon
TK-10 renal = test system: TK-10 renal
U251 CNS = test system: U251 CNS
UACC-257 melanoma = test system: UACC-257 melanoma
UACC-62 melanoma = test system: UACC-62 melanoma
UO-31 renal = test system: UO-31 renal

Question: Which TGI (786-0 renal) does the source give for COc1c2c(cc3nc4ccccc4nc13)CC[C@H](NC(C)=O)c1cc(=O)c(SC)ccc1-2 here?
Answer: The TGI was 39.8 µM.

Question: What about the TGI (A498 renal) of the same compound?
Answer: The TGI was over 90.9 µM.

Question: What about the TGI (A549 NSCLC) of the same compound?
Answer: The TGI was over 100 µM.

Question: What about the TGI (ACHN renal) of the same compound?
Answer: Its TGI is over 64.5 µM.

Question: What about the TGI (CAKI-1 renal) of the same compound?
Answer: The TGI was over 42.6 µM.

Question: And the TGI (CCRF-CEM leukemia)?
Answer: Its TGI is over 100 µM.

Question: What about the TGI (COLO 205 colon) of the same compound?
Answer: The TGI was 3.31 µM.

Question: What about the TGI (DU-145 prostate) of the same compound?
Answer: The TGI was 51.3 µM.

Question: And the TGI (EKVX NSCLC)?
Answer: The TGI was 8.63 µM.

Question: What about the TGI (HCC-2998 colon) of the same compound?
Answer: The TGI was over 24.6 µM.

Question: What about the TGI (HCT-116 colon) of the same compound?
Answer: Its TGI is 27.3 µM.

Question: What about the TGI (HCT-15 colon) of the same compound?
Answer: The TGI was 19 µM.

Question: What about the TGI (HOP-62 NSCLC) of the same compound?
Answer: Its TGI is over 100 µM.

Question: What about the TGI (HOP-92 NSCLC) of the same compound?
Answer: Its TGI is over 55.9 µM.

Question: What about the TGI (HS 578T breast) of the same compound?
Answer: The TGI was 0.7 µM.

Question: What about the TGI (HT29 colon) of the same compound?
Answer: The TGI was 6.23 µM.

Question: What about the TGI (IGROV1 ovarian) of the same compound?
Answer: The TGI was 4.36 µM.

Question: What about the TGI (K-562 leukemia) of the same compound?
Answer: Its TGI is over 42.2 µM.

Question: What about the TGI (KM12 colon) of the same compound?
Answer: The TGI was 3 µM.

Question: What about the TGI (LOX IMVI melanoma) of the same compound?
Answer: The TGI was over 71.6 µM.

Question: And the TGI (M14 melanoma)?
Answer: Its TGI is 19.3 µM.

Question: What about the TGI (MCF7 breast) of the same compound?
Answer: Its TGI is over 100 µM.

Question: What about the TGI (MDA-MB-231 breast) of the same compound?
Answer: The TGI was 36.1 µM.

Question: What about the TGI (MDA-N) of the same compound?
Answer: The TGI was 0.329 µM.

Question: And the TGI (MOLT-4 leukemia)?
Answer: The TGI was over 65.4 µM.

Question: And the TGI (NCI-H226 lung)?
Answer: Its TGI is 32.2 µM.

Question: And the TGI (NCI-H23 lung)?
Answer: Its TGI is 0.777 µM.

Question: And the TGI (NCI-H460 lung)?
Answer: The TGI was over 100 µM.

Question: And the TGI (NCI-H522 lung)?
Answer: The TGI was 1.69 µM.

Question: What about the TGI (NCI/ADR-RES ovarian) of the same compound?
Answer: Its TGI is over 100 µM.

Question: What about the TGI (OVCAR-3 ovarian) of the same compound?
Answer: Its TGI is over 100 µM.

Question: And the TGI (OVCAR-4 ovarian)?
Answer: The TGI was 38.7 µM.

Question: And the TGI (OVCAR-5 ovarian)?
Answer: The TGI was over 100 µM.

Question: And the TGI (OVCAR-8 ovarian)?
Answer: Its TGI is over 32.7 µM.

Question: What about the TGI (PC-3 prostate) of the same compound?
Answer: Its TGI is over 69.6 µM.

Question: What about the TGI (RPMI-8226 leukemia) of the same compound?
Answer: Its TGI is over 100 µM.

Question: And the TGI (RXF 393 renal)?
Answer: The TGI was over 49.9 µM.

Question: And the TGI (SF-268 CNS)?
Answer: Its TGI is over 56.5 µM.

Question: What about the TGI (SF-295 CNS) of the same compound?
Answer: The TGI was over 44.6 µM.

Question: What about the TGI (SF-539 CNS) of the same compound?
Answer: Its TGI is 5.28 µM.

Question: What about the TGI (SK-MEL-2 melanoma) of the same compound?
Answer: Its TGI is over 55.2 µM.

Question: And the TGI (SK-MEL-28 melanoma)?
Answer: Its TGI is over 100 µM.

Question: What about the TGI (SK-MEL-5 melanoma) of the same compound?
Answer: The TGI was 10.8 µM.

Question: What about the TGI (SK-OV-3 ovarian) of the same compound?
Answer: Its TGI is over 70.9 µM.

Question: And the TGI (SN12C renal)?
Answer: Its TGI is 34.2 µM.

Question: What about the TGI (SNB-19 CNS) of the same compound?
Answer: Its TGI is over 100 µM.

Question: What about the TGI (SR leukemia) of the same compound?
Answer: Its TGI is over 32.5 µM.

Question: And the TGI (SW-620 colon)?
Answer: Its TGI is over 100 µM.

Question: And the TGI (TK-10 renal)?
Answer: The TGI was over 59.3 µM.

Question: And the TGI (U251 CNS)?
Answer: The TGI was 10.6 µM.

Question: And the TGI (UACC-257 melanoma)?
Answer: The TGI was 30.5 µM.

Question: And the TGI (UACC-62 melanoma)?
Answer: The TGI was 44.6 µM.

Question: What about the TGI (UO-31 renal) of the same compound?
Answer: Its TGI is 28.7 µM.
